These results are taken from patent publication US10202360B2 (CELGENE QUANTICEL RESEARCH, INC., priority 2016, dated 2019).

The target of this assay is CREBBP (Homo sapiens (Human), UniProt Q92793). Nature of the assay: In vitro enzyme inhibition assay - CREBBP inhibition (AlphaScreen, biotinylated H4-tetraacetyl peptide). Format: binding. Particulars: Table 28; AlphaScreen, H4-tetraacetyl peptide. Here is the method:
Determination of the IC50 for the CREBBP inhibitors disclosed herein was performed as follows: CREBBP was cloned and expressed in E. Coli as His-tag protein and purified by Nickel affinity and gel-filtration chromatography. […] CREBBP binding and inhibition was assessed by monitoring the interaction of biotinylated H4-tetraacetyl peptide (AnaSpec, H4K5/8/12/16(Ac), biotin-labeled) with the target using the AlphaScreen technology (Perkin Elmer). In a 384-well ProxiPlate CREBBP (50 nM final) was combined with peptide (20 nM final) in 50 mM HEPES (pH 7.3), 10 mM NaCl, 0.25 mM TCEP, 0.1% (w/v) BSA, and 0.005% (w/v) Brij-35 either in the presence of DMSO (final 0.4% DMSO) or compound dilution series in DMSO. After 20-minute incubation at room temperature, Alpha streptavidin donor beads and Nickel Chelate acceptor beads were added to a final concentration of 5 μg/mL. After two hours of equilibration, plates were read on an Envision instrument and the IC50 was calculated using a four parameter non-linear curve fit.
The ability of the compounds disclosed herein to inhibit CBP activity was quantified and the respective IC50 value was determined.
(In general: In Alpha technology, singlet oxygen from a donor bead excites a nearby acceptor bead.)

CREBBP, sequence (Q92793 1081-1197): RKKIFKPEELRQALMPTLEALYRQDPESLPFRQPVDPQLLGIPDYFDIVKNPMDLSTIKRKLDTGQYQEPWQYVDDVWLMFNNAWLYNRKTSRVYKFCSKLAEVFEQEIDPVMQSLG

Regarding `CCCCS(=O)(=O)Nc1cc(-c2ccc(=O)n(C)c2)nc(Oc2c(C)cc(Cl)cc2Cl)n1` [Example 32, Butane-1-sulfonic acid [2-(2,4-dichloro-6-methyl-phenoxy)-6-(1-methyl-6-oxo-1,6-dihydro-pyridin-3-yl)-pyrimidin-4-yl]-amide], the IC50 (in general, the point on the concentration scale where inhibition reaches its midpoint) was below 0.5 µM.

Compound `Cc1cc(Cl)cc(Cl)c1Oc1nc(NS(=O)(=O)C(C)C)cc(-c2ccc(=O)n(C)c2)n1` [Example 34, Propane-2-sulfonic acid [2-(2,4-dichloro-6-methyl-phenoxy)-6-(1-methyl-6-oxo-1,6-dihydro-pyridin-3-yl)-pyrimidin-4-yl]-amide] yielded an IC50 below 0.5 µM.

In the case of `CCCCS(=O)(=O)Nc1cc(-c2cc(C)c(=O)n(C)c2)nc(Oc2cc(OC)ccc2C#N)n1` [Example 35, Butane-1-sulfonic acid [2-(2-cyano-5-methoxy-phenoxy)-6-(1,5-dimethyl-6-oxo-1,6-dihydro-pyridin-3-yl)-pyrimidin-4-yl]-amide], the IC50 is below 0.5 µM.

In the case of `CCCCS(=O)(=O)Nc1cc(-c2cc(C)c(=O)n(C)c2)nc(Oc2cc(C)ccc2C#N)n1` [Example 36, Butane-1-sulfonic acid [2-(2-cyano-5-methyl-phenoxy)-6-(1,5-dimethyl-6-oxo-1,6-dihydro-pyridin-3-yl)-pyrimidin-4-yl]-amide], the IC50 is below 0.5 µM.

Compound `CCCCS(=O)(=O)Nc1cc(-c2cc(C)c(=O)n(C)c2)nc(Oc2ccccc2C#N)n1` [Example 37, Butane-1-sulfonic acid [2-(2-cyano-phenoxy)-6-(1,5-dimethyl-6-oxo-1,6-dihydro-pyridin-3-yl)-pyrimidin-4-yl]-amide] returned an IC50 below 0.5 µM.

For the compound `CCCCS(=O)(=O)Nc1cc(-c2cc(C)c(=O)n(C)c2)nc(Oc2cc(C(C)C)ccc2Cl)n1` [Example 38, Butane-1-sulfonic acid [2-(2-chloro-5-isopropyl-phenoxy)-6-(1,5-dimethyl-6-oxo-1,6-dihydro-pyridin-3-yl)-pyrimidin-4-yl]-amide], the IC50 is below 0.5 µM.

The compound `CCCS(=O)(=O)Nc1cc(-c2cc(C)c(=O)n(C)c2)nc(Oc2cc(C(C)C)ccc2Cl)n1` [Example 39, Propane-1-sunnic acid [2-(2-chloro-5-isopropyl-phenoxy)-6-(1,5-dimethyl-6-oxo-1,6-dihydro-pyridin-3-yl)-pyrimidin-4-yl]-amide] showed an IC50 below 0.5 µM.

Consider `Cc1cc(-c2cc(NS(=O)(=O)C(C)C)nc(Oc3cc(C(C)C)ccc3Cl)n2)cn(C)c1=O` [Example 40, Propane-2-sulfonic acid [2-(2-chloro-5-isopropyl-phenoxy)-6-(1,5-dimethyl-6-oxo-1,6-dihydro-pyridin-3-yl)-pyrimidin-4-yl]-amide], for which the IC50 was below 0.5 µM.

In the case of `CCCS(=O)(=O)Nc1cc(-c2cc(C)c(=O)n(C)c2)nc(Oc2c(Cl)cccc2CC)n1` [Example 42, Propane-1-sulfonic acid [2-(2-chloro-6-ethyl-phenoxy)-6-(1,5-dimethyl-6-oxo-1,6-dihydro-pyridin-3-yl)-pyrimidin-4-yl]-amide], the IC50 was below 0.5 µM.

`CCc1cccc(Cl)c1Oc1nc(NS(=O)(=O)C(C)C)cc(-c2cc(C)c(=O)n(C)c2)n1` [Example 43, Propane-2-sulfonic acid [2-(2-chloro-6-ethyl-phenoxy)-6-(1,5-dimethyl-6-oxo-1,6-dihydro-pyridin-3-yl)-pyrimidin-4-yl]-amide] displayed an IC50 below 0.5 µM.

`CCn1cc(-c2cc(NS(=O)(=O)C(C)C)nc(Oc3ccc(F)cc3F)n2)cc(C)c1=O` [Example 44, Propane-2-sulfonic acid [2-(2,4-difluoro-phenoxy)-6-(1-ethyl-5-methyl-6-oxo-1,6-dihydro-pyridin-3-yl)-pyrimidin-4-yl]-amide] gave an IC50 below 0.5 µM.

For the compound `CCCn1cc(-c2cc(NS(=O)(=O)C(C)C)nc(Oc3ccc(F)cc3F)n2)cc(C)c1=O` [Example 45, Propane-2-sulfonic acid [2-(2,4-difluoro-phenoxy)-6-(5-methyl-6-oxo-1-propyl-1,6-dihydro-pyridin-3-yl)-pyrimidin-4-yl]-amide], the IC50 was in the range of 0.5 to 5 µM.

Regarding `CCCCn1cc(-c2cc(NS(=O)(=O)C(C)C)nc(Oc3ccc(F)cc3F)n2)cc(C)c1=O` [Example 46, Propane-2-sulfonic acid [6-(1-butyl-5-methyl-6-oxo-1,6-dihydro-pyridin-3-yl)-2-(2,4-difluoro-phenoxy)-pyrimidin-4-yl]-amide], the IC50 was above 5 µM.

`Cc1cc(-c2cc(NS(=O)(=O)C(C)C)nc(Oc3ccc(F)cc3F)n2)cn(C(C)C)c1=O` [Example 47, Propane-2-sulfonic acid [2-(2,4-difluoro-phenoxy)-6-(1-isopropyl-5-methyl-6-oxo-1,6-dihydro-pyridin-3-yl)-pyrimidin-4-yl]-amide] displayed an IC50 of 0.5 to 5 µM.

For the compound `Cc1cc(-c2cc(NS(=O)(=O)C(C)C)nc(Oc3ccc(F)cc3F)n2)cn(CC(C)C)c1=O` [Example 48, Propane-2-sulfonic acid [2-(2,4-difluoro-phenoxy)-6-(1-isobutyl-5-methyl-6-oxo-1,6-dihydro-pyridin-3-yl)-pyrimidin-4-yl]-amide], the IC50 is above 5 µM.

Consider `Cc1cc(-c2cc(NS(=O)(=O)C(C)C)nc(Oc3ccc(F)cc3F)n2)cn(CC2CC2)c1=O` [Example 49, Propane-2-sulfonic acid [6-(1-cyclopropylmethyl-5-methyl-6-oxo-1,6-dihydro-pyridin-3-yl)-2-(2,4-difluoro-phenoxy)-pyrimidin-4-yl]-amide], for which the IC50 is below 0.5 µM.

In turn, `Cc1cc(-c2cc(NS(=O)(=O)C(C)C)nc(Oc3ccc(F)cc3F)n2)cn(CC2CCC2)c1=O` [Example 50, Propane-2-sulfonic acid [6-(1-cyclobutylmethyl-5-methyl-6-oxo-1,6-dihydro-pyridin-3-yl)-2-(2,4-difluoro-phenoxy)-pyrimidin-4-yl]-amide] displayed an IC50 above 5 µM.

As for `CC(=O)OCCn1cc(-c2cc(NS(=O)(=O)C(C)C)nc(Oc3ccc(F)cc3F)n2)cc(C)c1=O` [Example 51, Acetic acid 2-{5-[2-(2,4-difluoro-phenoxy)-6-(propane-2-sulfonylamino)-pyrimidin-4-yl]-3-methyl-2-oxo-2H-pyridin-1-yl}-ethyl ester], the IC50 was 0.5 to 5 µM.

`Cc1cc(-c2cc(NS(=O)(=O)C(C)C)nc(Oc3ccc(F)cc3F)n2)cn(CC(F)(F)F)c1=O` [Example 52, Propane-2-sulfonic acid {2-(2,4-difluoro-phenoxy)-6-[5-methyl-6-oxo-1-(2,2,2-trifluoro-ethyl)-1,6-dihydro-pyridin-3-yl]-pyrimidin-4-yl}-amide] showed an IC50 of 0.5 to 5 µM.

As to `COCCn1cc(-c2cc(NS(=O)(=O)C(C)C)nc(Oc3ccc(F)cc3F)n2)cc(C)c1=O` [Example 53, Propane-2-sulfonic acid {2-(2,4-difluoro-phenoxy)-6-[1-(2-methoxy-ethyl)-5-methyl-6-oxo-1,6-dihydro-pyridin-3-yl]-pyrimidin-4-yl}-amide], the IC50 was in the range of 0.5 to 5 µM.

The compound `CCCS(=O)(=O)Nc1cc(-c2cc(C)c(=O)n(C3CC3)c2)nc(Oc2c(C)cccc2C)n1` [Example 54, Propane-1-sulfonic acid [6-(1-cyclopropyl-5-methyl-6-oxo-1,6-dihydro-pyridin-3-yl)-2-(2,6-dimethyl-phenoxy)-pyrimidin-4-yl]-amide] had an IC50 of 0.5 to 5 µM.

`CCCS(=O)(=O)Nc1cc(-c2cc(C)c(=O)n(C3COC3)c2)nc(Oc2c(C)cccc2C)n1` [Example 55, Propane-1-sulfonic acid [2-(2,6-dimethyl-phenoxy)-6-(5-methyl-1-oxetan-3-yl-6-oxo-1,6-dihydro-pyridin-3-yl)-pyrimidin-4-yl]-amide] gave an IC50 of 0.5 to 5 µM.

As for `CCCCS(=O)(=O)Nc1cc(Oc2c(C)cccc2C)nc(-c2cc(C)c(=O)n(C)c2)n1` [Example 56, Butane-1-sulfonic acid [2-(1,5-dimethyl-6-oxo-1,6-dihydro-pyridin-3-yl)-6-(2,6-dimethyl-phenoxy)-pyrimidin-4-yl]-amide], the IC50 was below 0.5 µM.

For the compound `Cc1cc(-c2cc(NS(=O)(=O)C(C)C)nc(Oc3cccc4ccn(C)c34)n2)cn(C)c1=O` [Example 57, Propane-2-sulfonic acid [6-(1,5-dimethyl-6-oxo-1,6-dihydro-pyridin-3-yl)-2-(1-methyl-1H-indol-7-yloxy)-pyrimidin-4-yl]-amide], the IC50 is below 0.5 µM.

With `Cc1cc2c(Oc3nc(NS(=O)(=O)C(C)C)cc(-c4cc(C)c(=O)n(C)c4)n3)cccc2o1` [Example 58, N-(6-(1,5-dimethyl-6-oxo-1,6-dihydropyridin-3-yl)-2-((2-methylbenzofuran-4-yl)oxy)pyrimidin-4-yl)propane-2-sulfonamide], the IC50 was below 0.5 µM.

The compound `Cc1cc(-c2cc(NS(=O)(=O)C(C)C)nc(Oc3cccc4occc34)n2)cn(C)c1=O` [Example 59, N-(2-(benzofuran-4-yloxy)-6-(1,5-dimethyl-6-oxo-1,6-dihydropyridin-3-yl)pyrimidin-4-yl)propane-2-sulfonamide] gave an IC50 below 0.5 µM.

Turning to `CCCS(=O)(=O)Nc1cc(Oc2c(C)cc(Cl)cc2Cl)nc(-c2cc(C)c(=O)n(C)c2)n1` [Example 60, Propane-1-sulfonic acid [6-(2,4-dichloro-6-methyl-phenoxy)-2-(1,5-dimethyl-6-oxo-1,6-dihydro-pyridin-3-yl)-pyrimidin-4-yl]-amide], the IC50 is below 0.5 µM.

`Cc1cc(-c2cc(NS(C)(=O)=O)nc(Oc3ccc(F)cc3F)n2)cn(C)c1=O` [Example 61, N-(2-(2,4-difluorophenoxy)-6-(1,5-dimethyl-6-oxo-1,6-dihydropyridin-3-yl)pyrimidin-4-yl)methanesulfonamide] came in with an IC50 below 0.5 µM.
